Paper PMC7473772 (eLife, 2020)
Values joined by “and” are separate entries in the source; they are usually repeats but may differ in a detail not shown here. Equal values may be shown once. Where a name gives a salt, the structure may show the parent alone. Read-outs that look alike come from different tables or passages of the source. Marks after values point to notes of the source that are not given here.

Legend:
tbaqp2 null (AQP2-KO) = assay: Drug sensitivity assay (resazurin); assay type: cell-based; details: Trypanosoma brucei, read-out: EC50 AQP2-KO AVG, AQP2-KO / tbaqp2 null; 48 h drug + 24 h resazurin
TbAQP2/HAPT1 = TbAQP2/HAPT1 (Trypanosoma brucei brucei, UniProt Q6ZXT3); assay: cell-based; assay type: cell-based
T. b. brucei 2T1 = assay: Drug sensitivity assay (resazurin); assay type: cell-based; details: Trypanosoma brucei, 48 h drug + 24 h resazurin, read-out: EC50 control 2T1 AVG
Procedure: The tbaqp2/tbaqp3 null cells ([Baker et al., 2012]) and tbaqp1-2-3 null cells ([Jeacock et al., 2017]) (both obtained from David Horn, University of Dundee, UK) are derived from the 2T1 strain of T. b. brucei ([Alsford and Horn, 2008]). The CRK12 RNAi cell line^28 was obtained from Dr Tansy Hammarton (University of Glasgow, UK) and is also based on the 2T1 cell line; RNAi expression was induced with 1 µg/ml tetracycline in the medium. All experiments were performed with bloodstream form trypanosomes grown in vitro in HMI-11 medium as described ([Wallace et al., 2002]) at 37°C in a 5% CO2 atmosphere. Cultures were routinely maintained in 10 ml of this medium, being seeded at 5 × 10^4 cells/ml and passed to fresh medium at reaching approximately 3 × 10^6 cells/ml after 48 hr. For transport experiments 150 or 200 ml of culture was seeded at the same density in large flasks and incubated until the culture reached late-log phase.
Drug sensitivity assays for T. b. brucei bloodstream forms used the cell viability dye resazurin (Sigma) and were performed exactly as described ([Wallace et al., 2002]; [Bridges et al., 2007]) in 96-well plates with doubling dilutions of test compound, starting at 100 µM, over 2 rows of the plate (23 dilutions plus no-drug control). Incubation time with test compound was 48 hr (37°C/5% CO2), followed by an additional 24 hr in the presence of the dye.

[1] = test system: T. b. brucei s427 WT (bloodstream forms); assay type: cell-based, Trypanosoma brucei brucei
s427WT bloodstream forms = assay type: cell-based, Trypanosoma brucei brucei; details: for 3H-penta: CCCP 20, gramicidin 10, Nigericin 20, NEM 1000; for Inhibition of pentamidine transport: after preincubation
CRK12 RNAi cells = assay: [3H]-suramin uptake after CRK12 RNAi induction (endocytosis defect); assay type: cell-based, Trypanosoma brucei
[2] = test system: T. b. brucei s427WT cells; assay type: cell-based, Trypanosoma brucei brucei
[3] = CCCP 20, gramicidin 10, Nigericin 20, NEM 1000, Control -95.4
[4] = 25 nM [3H]-pentamidine, 1 mM adenosine, 3 min pre-incubation

TbAQP2/HAPT1, sequence (Q6ZXT3 whole entry): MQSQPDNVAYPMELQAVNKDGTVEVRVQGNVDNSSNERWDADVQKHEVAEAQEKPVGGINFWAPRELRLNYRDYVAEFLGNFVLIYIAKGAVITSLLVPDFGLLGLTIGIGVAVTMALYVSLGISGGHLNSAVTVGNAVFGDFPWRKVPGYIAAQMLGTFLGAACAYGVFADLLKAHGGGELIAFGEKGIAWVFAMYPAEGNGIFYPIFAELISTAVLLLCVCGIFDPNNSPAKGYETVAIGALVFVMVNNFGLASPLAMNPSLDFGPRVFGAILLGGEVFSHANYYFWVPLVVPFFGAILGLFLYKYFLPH

Molecule	EC50 (tbaqp2 null (AQP2-KO))	ΔG0 (TbAQP2/HAPT1)	δ(ΔG^0) PMD (TbAQP2/HAPT1)	EC50 (T. b. brucei 2T1)	Ki (TbAQP2/HAPT1; Ki)	further results
COc1ccc(-c2ccc(-c3ccc(C(=N)N)cc3)o2)cc1 (as salt: hydrochloride) [DB607, 4-(5-(4-methoxyphenyl)furan-2-yl) benzimidamide hydrochloride]						melting point: 250 to 252 °C (dec.)
Cn1c(-c2ccc(-c3ccc(C(=N)N)cc3)o2)nc2ccccc21 (as salt: hydrochloride) [DB960, 4-(5-(1-methyl-1H-benzo[d]imidazol-2-yl)furan-2-yl) benzimidamide dihydrochloride]						melting point: > 290 °C (dec.)
Cl.N=C(N)c1ccc(OCCCCOc2ccccc2)cc1.O (hydrate or solvate) [CHI/1/69/1, 4-(4-Phenoxybutoxy)benzimidamide hydrochloride hydrate]						melting point: 134 to 135 °C
Cl.Cl.N=C(N)c1ccc(OCCOc2ccc(C(=N)N)cc2)cc1.O.O (hydrate or solvate) [Ethamidine, 4,4'-(ethane-1,2-diylbis(oxy))dibenzimidamide dihydrochloride dihydrate]						melting point: 333 °C
Cc1ccc(OCCCCCOc2ccc(C(=N)N)cc2)cc1 [CHI/1/72/1, 4-(5-(p-tolyloxy)pentyyloxy)benzimidamide hydrochloride hydrate]	2640 nM	-7.62 kcal/mol	2.56 kcal/mol	3230 nM		Ki (TbAQP2/HAPT1; HAPT Ki AVG): 2600 nM; Ki (TbAQP2/HAPT1; HAPT Ki, AVG): 2620 nM
N=C(N)c1ccc(-c2ccc(-c3ccc(C(=N)N)cc3)o2)cc1 [DB75]	20 nM	-6.02 kcal/mol	4.13 kcal/mol	50 nM	38200 ± 10200 nM	Ki (TbAQP2/HAPT1; HAPT Ki AVG): 38300 nM
Cl.Cl.c1cc(-c2ccc(-c3ccc(CCC4=NCCN4)cc3)s2)ccc1CCC1=NCCN1 [DB1064, 2,5-bis(4-(2-(4,5-dihydro-1H-imidazol-2-yl)ethyl)phenyl) thiophene dihydrochloride]		-7.53 kcal/mol	2.63 kcal/mol		3000 ± 820 nM	melting point: > 225 °C (dec.)
N=C(N)c1ccc(-c2ccc(-c3ccc(C(=N)N)cc3)[se]2)cc1 [DB1213]	78 nM	-8.39 kcal/mol	1.79 kcal/mol	142 nM	720 ± 170 nM	
CCN1C(=O)C=CC1=O [NEM, N-ethylmaleimide]						PMF [1]: -39.3; pentamidine uptake (s427WT bloodstream forms; NEM 1000, AVG): 60.1 percentage of the uninhibited control; pentamidine uptake (s427WT bloodstream forms; NEM 1000, single repeats): 56.77 percentage of the uninhibited control and 56.26 percentage of the uninhibited control and 67.13 percentage of the uninhibited control
CNC(=N)c1ccc(OCCCCCOc2ccc(C(=N)NC)cc2)cc1 [RT-30]	800 nM	-8.89 kcal/mol	1.27 kcal/mol	590 nM	300 ± 70 nM	
c1cc(C2=NCCN2)ccc1OCCCCCOc1ccc(C2=NCCN2)cc1 [RT-32]	500 nM	-8.72 kcal/mol	1.43 kcal/mol	400 nM	400 ± 80 nM	
N=C(N)c1ccc(OCCCCCOc2ccc(N)cc2)cc1 [RT-36]	23000 nM	-8.68 kcal/mol	1.48 kcal/mol	25700 nM	430 ± 70 nM	
N=C(N)c1ccc(OCCCCCOc2ccc(C(=N)N)cc2Cl)c(Cl)c1 [RT-43]	235 nM	-8.58 kcal/mol	1.58 kcal/mol	180 nM	510 ± 150 nM	δ(ΔG0) (TbAQP2/HAPT1): 1.59 kcal/mol
N=C(N)c1ccc(SCCCCCSc2ccc(C(=N)N)cc2)cc1 [RT-48]	165 nM	-7.77 kcal/mol	2.39 kcal/mol	24 nM	2010 ± 860 nM	
N=C(N)c1ccc(NCCCCCNc2ccc(C(=N)N)cc2)cc1 [RT-50]	72 nM	-7.1 kcal/mol	3.08 kcal/mol	4.1 nM	6270 ± 1300 nM	
N=C(N)c1ccc(OCCCCCOc2ccc(C(=N)N)cn2)nc1 [RT-52]	51 nM	-6.88 kcal/mol	3.27 kcal/mol	8.8 nM	8840 ± 880 nM	
Cc1ccc(C(=O)Nc2ccc(S(=O)(=O)O)c3cc(S(=O)(=O)O)cc(S(=O)(=O)O)c23)cc1NC(=O)c1cccc(NC(=O)Nc2cccc(C(=O)Nc3cc(C(=O)Nc4ccc(S(=O)(=O)O)c5cc(S(=O)(=O)O)cc(S(=O)(=O)O)c45)ccc3C)c2)c1 [Suramin]						suramin uptake rate, CRK+tet (CRK12 RNAi cells; AVERAGE of the experiments): 0.000346 pmol/1E7 cells/s-1; suramin uptake rate, CRK+tet (CRK12 RNAi cells; single experiments): 0.0003125 pmol/1E7 cells/s-1 and 0.0002775 pmol/1E7 cells/s-1 and 0.0003952 pmol/1E7 cells/s-1 and 0.0004343 pmol/1E7 cells/s-1; suramin uptake rate, CRK-tet (CRK12 RNAi cells; AVERAGE of the experiments): 0.000523 pmol/1E7 cells/s-1; suramin uptake rate, CRK-tet (CRK12 RNAi cells; single experiments): 0.0004923 pmol/1E7 cells/s-1 and 0.0003572 pmol/1E7 cells/s-1 and 0.000635 pmol/1E7 cells/s-1 and 0.0006387 pmol/1E7 cells/s-1; Reduction of [3H]-suramin uptake (CRK12 RNAi cells; twelve hours after CRK12 RNAi induction): 33%
CO[C@@H]1C[C@@H](C[C@H]2CC[C@H](C)[C@H]([C@@H](C)C(=O)O)O2)O[C@]2(O[C@](C)([C@H]3CC[C@@](C)([C@@H]4O[C@@H]([C@H]5O[C@@](O)(CO)[C@H](C)C[C@@H]5C)C[C@@H]4C)O3)C[C@H]2C)[C@@H]1C [nigericin]						PMF [1]: -46.9; Effect of ionophore on pentamidine uptake (s427WT bloodstream forms): strongly inhibited; 3H-penta (s427WT bloodstream forms; Control = 100): 44.45; pentamidine uptake (s427WT bloodstream forms; Nigericin 1, AVG): 109.4 percentage of the uninhibited control; pentamidine uptake (s427WT bloodstream forms; Nigericin 1, single repeats): 108 percentage of the uninhibited control and 110.7 percentage of the uninhibited control; pentamidine uptake (s427WT bloodstream forms; Nigericin 5, AVG): 76.8 percentage of the uninhibited control; pentamidine uptake (s427WT bloodstream forms; Nigericin 10, AVG): 61.2 percentage of the uninhibited control; pentamidine uptake (s427WT bloodstream forms; Nigericin 10, single repeats): 63.9 percentage of the uninhibited control and 61 percentage of the uninhibited control and 53.2 percentage of the uninhibited control and 66.7 percentage of the uninhibited control; pentamidine uptake (s427WT bloodstream forms; Nigericin 20, AVG): 44.5 percentage of the uninhibited control; pentamidine uptake (s427WT bloodstream forms; Nigericin 20, single repeats): 41.7 percentage of the uninhibited control and 44.5 percentage of the uninhibited control and 42.9 percentage of the uninhibited control and 48.7 percentage of the uninhibited control
carbonyl cyanide m-chlorophenyl hydrazone [CCCP]						PMF [1, 3]: -45.6; Effect of ionophore on pentamidine uptake (s427WT bloodstream forms; [4]): strongly inhibited; Inhibition of pentamidine transport (s427WT bloodstream forms; 1 µM): ~ 63%; Inhibition of pentamidine transport (s427WT bloodstream forms; 5 µM): ~ 90%; pentamidine uptake (s427WT bloodstream forms; CCCP 0.25, AVG): 106.6 percentage of the uninhibited control; pentamidine uptake (s427WT bloodstream forms; CCCP 0.25, single repeats): 101 percentage of the uninhibited control and 112.1 percentage of the uninhibited control; pentamidine uptake (s427WT bloodstream forms; CCCP 1, AVG): 36.9 percentage of the uninhibited control; pentamidine uptake (s427WT bloodstream forms; CCCP 1, single repeats): 34.6 percentage of the uninhibited control and 39.1 percentage of the uninhibited control; pentamidine uptake (s427WT bloodstream forms; CCCP 5, AVG): 10.3 percentage of the uninhibited control; pentamidine uptake (s427WT bloodstream forms; CCCP 10, AVG): 4.3 percentage of the uninhibited control; 3H-penta (s427WT bloodstream forms; Control = 100): 4.97*; pentamidine uptake (s427WT bloodstream forms; CCCP 20, AVG): 5.0 percentage of the uninhibited control; 3H-penta, outlier (s427WT bloodstream forms; CCCP 20, repeated in the column outlier, Control = 100): 4.97; Inhibition of [3H]-suramin uptake (endocytosis) ([2]; 20 µM CCCP, pre-incubation 3 min, suramin accumulation over 10 min): 32.6%; suramin accumulated, % of no CCCP control ([2]; +CCCP, 10 minutes): 67.3935 % of no CCCP control; pmol suramin accumulated in 10 minutes (Average) ([2]; +CCCP, Average of experiments): 0.5894 pmol; pmol suramin accumulated in 10 minutes (AVG pmol) ([2]; +CCCP, single experiments): 0.4589 pmol and 0.5929 pmol and 0.7163 pmol
gramicidin						PMF [1, 3]: -13.1; Effect of ionophore on pentamidine uptake (s427WT bloodstream forms; [4]): strongly inhibited; 3H-penta (s427WT bloodstream forms; Control = 100): 5.87; pentamidine uptake (s427WT bloodstream forms; Gramicidin 1, AVG): 23.3 percentage of the uninhibited control; pentamidine uptake (s427WT bloodstream forms; Gramicidin 5, AVG): 3.7 percentage of the uninhibited control; pentamidine uptake (s427WT bloodstream forms; Gramicidin 10, AVG): 5.9 percentage of the uninhibited control
